# Results: patent US20240293563A1, “GLP-1 RECEPTOR LIGAND MOIETY CONJUGATED OLIGONUCLEOTIDES AND USES THEREOF” (priority 2017, published 2024)
# pIC50: −log10 of the molar value. Square brackets hold non-standard residues; d marks the D form. Side chains are listed from the residue outwards. Ends that are not written are not given here. 5'‑hexylamino oligonucleotide ISIS 786434 = not defined here; Aib = CC(C)(N)C(=O)O; Mpa = O=C(O)CCS
# Assays:
# [1] = Food intake of mice after single subcutaneous injection of GLP-1 conjugated ASO; type: in vivo, mouse
# Method: Groups of eight mice were administered a single subcutaneous injection of 0.01, 0.03, or 0.1 μmol/kg of ION 816385 (GLP-1 conjugated MALAT-1 ASO conjugated via a disulfide linker) or 0.1 μmol/kg ION 1123118 (GLP-1 conjugated MALAT-1 ASO conjugated via a maleimide acid linker), as indicated in the table below, and food intake was measured for 24 hours. Food intake of eight mice administered a subcutaneous injection of PBS was monitored as a control.
# [2] = test system: MALAT1; assay: MALAT1 in situ hybridization in beta islet cells after i.v. GLP-1 ASO conjugates with various linkers; type: in vivo, mouse; conditions: male C57BL/6 mice; intravenous 0.6 μmol/kg/week once a week for three weeks; 72 hours after final injection
# [3] = test system: MALAT-1 mRNA; assay: Dose-response inhibition of MALAT-1 mRNA in pancreatic islets 72 hrs after single s.c. dose, various linkers; type: in vivo, mouse; conditions: 0.01 μmol/kg single subcutaneous injection, relative to PBS
# [4] = test system: MALAT1 mRNA; assay: Dose dependent antisense inhibition of MALAT1 in hGLP1R-HEK cells; type: cell-based, human; conditions: approximately 24 hrs, qRT-PCR normalized to RPLP0
# Method: The hGLP1R-HEK cell line was generated by expressing hGLP1R in Flp-IN™ 293 cells. Cultured hGLP1R-HEK cells were seeded at a density 30,000 cells per well in 96 well plates and saline, 100 nM or 10 μM of unconjugated parent antisense oligonucleotide ISIS 556089 targeted to MALAT1 described above or ISIS 776102 (nucleobase sequence: […]) (SEQ ID NO: 64) targeted to FOXO1, or corresponding GLP-1 peptide conjugated antisense oligonucleotides (ISIS 816385 targeted to MALAT1 described above or ION 913193 targeted to FOXO1 described above) for approximately 24 hrs. After the treatment period, cells were harvested, the mRNA isolated and adjusted to total RNA content as measured by nanadrop UV-Vis spectrophotometer. MALAT1 or FOXO1 mRNA levels were measured by quantitative real-time PCR and normalized to the mRNA levels of the house keeping gene (RPLP0) in the same samples. Human MALAT1 mRNA levels were measured using gene expression assays HS00273907 and FOXO1 mRNA levels were measured using assay Hs01054576 (Applied Biosystems). The mRNA level of the house keeping gene RPLP0 was measured using a primer probe set with forward sequence […] CAT […] (SEQ ID NO: 66), reverse sequence […] (SEQ ID NO: 67). […]
# After the treatment period cells were harvested, mRNA isolated and MALAT1 mRNA levels measured by quantitative real-time PCR using the primer probe set as described herein (Example 7). […]
substance,measurement,setting,value
ISIS 816385 (H[Aib]EGTFTSDVSSYLEEQAAKEFIAWLVKGGPSSGAPPPSC([Mpa-5'‑hexylamino oligonucleotide ISIS 786434])-NH2; reading uncertain; also: Cys40 joined to the linker by a disulfide),Cumulative Food Intake,"[1]; 0.01 μmol/kg single s.c., Time 1 h",0.10 g
same,Cumulative Food Intake,"[1]; 0.01 μmol/kg single s.c., Time 2 h",0.25 g
same,Cumulative Food Intake,"[1]; 0.01 μmol/kg single s.c., Time 3 h",0.40 g
same,Cumulative Food Intake,"[1]; 0.01 μmol/kg single s.c., Time 4 h",0.56 g
same,Cumulative Food Intake,"[1]; 0.01 μmol/kg single s.c., Time 5 h",0.71 g
same,Cumulative Food Intake,"[1]; 0.01 μmol/kg single s.c., Time 6 h",0.86 g
same,Cumulative Food Intake,"[1]; 0.01 μmol/kg single s.c., Time 7 h",1.09 g
same,Cumulative Food Intake,"[1]; 0.01 μmol/kg single s.c., Time 8 h",1.23 g
same,Cumulative Food Intake,"[1]; 0.01 μmol/kg single s.c., Time 9 h",1.34 g
same,Cumulative Food Intake,"[1]; 0.01 μmol/kg single s.c., Time 10 h",1.47 g
same,Cumulative Food Intake,"[1]; 0.01 μmol/kg single s.c., Time 11 h",1.61 g
same,Cumulative Food Intake,"[1]; 0.01 μmol/kg single s.c., Time 12 h",1.81 g
same,Cumulative Food Intake,"[1]; 0.01 μmol/kg single s.c., Time 13 h",1.97 g
same,Cumulative Food Intake,"[1]; 0.01 μmol/kg single s.c., Time 14 h",2.22 g
same,Cumulative Food Intake,"[1]; 0.01 μmol/kg single s.c., Time 15 h",2.26 g
same,Cumulative Food Intake,"[1]; 0.01 μmol/kg single s.c., Time 16 h",2.31 g
same,Cumulative Food Intake,"[1]; 0.01 μmol/kg single s.c., Time 17 h",2.57 g
same,Cumulative Food Intake,"[1]; 0.01 μmol/kg single s.c., Time 18 h",2.57 g
same,Cumulative Food Intake,"[1]; 0.01 μmol/kg single s.c., Time 19 h",2.58 g
same,Cumulative Food Intake,"[1]; 0.01 μmol/kg single s.c., Time 20 h",2.64 g
same,Cumulative Food Intake,"[1]; 0.01 μmol/kg single s.c., Time 21 h",2.64 g
same,Cumulative Food Intake,"[1]; 0.01 μmol/kg single s.c., Time 22 h",2.69 g
same,Cumulative Food Intake,"[1]; 0.01 μmol/kg single s.c., Time 23 h",2.69 g
same,Cumulative Food Intake,"[1]; 0.01 μmol/kg single s.c., Time 24 h",2.69 g
same,Cumulative Food Intake,"[1]; 0.03 μmol/kg single s.c., Time 1 h",0.15 g
same,Cumulative Food Intake,"[1]; 0.03 μmol/kg single s.c., Time 2 h",0.21 g
same,Cumulative Food Intake,"[1]; 0.03 μmol/kg single s.c., Time 3 h",0.26 g
same,Cumulative Food Intake,"[1]; 0.03 μmol/kg single s.c., Time 4 h",0.31 g
same,Cumulative Food Intake,"[1]; 0.03 μmol/kg single s.c., Time 5 h",0.38 g
same,Cumulative Food Intake,"[1]; 0.03 μmol/kg single s.c., Time 6 h",0.48 g
same,Cumulative Food Intake,"[1]; 0.03 μmol/kg single s.c., Time 7 h",0.53 g
same,Cumulative Food Intake,"[1]; 0.03 μmol/kg single s.c., Time 8 h",0.55 g
same,Cumulative Food Intake,"[1]; 0.03 μmol/kg single s.c., Time 9 h",0.66 g
same,Cumulative Food Intake,"[1]; 0.03 μmol/kg single s.c., Time 10 h",0.73 g
same,Cumulative Food Intake,"[1]; 0.03 μmol/kg single s.c., Time 11 h",0.79 g
same,Cumulative Food Intake,"[1]; 0.03 μmol/kg single s.c., Time 12 h",0.89 g
same,Cumulative Food Intake,"[1]; 0.03 μmol/kg single s.c., Time 13 h",0.99 g
same,Cumulative Food Intake,"[1]; 0.03 μmol/kg single s.c., Time 14 h",1.07 g
same,Cumulative Food Intake,"[1]; 0.03 μmol/kg single s.c., Time 15 h",1.09 g
same,Cumulative Food Intake,"[1]; 0.03 μmol/kg single s.c., Time 16 h",1.22 g
same,Cumulative Food Intake,"[1]; 0.03 μmol/kg single s.c., Time 17 h",1.23 g
same,Cumulative Food Intake,"[1]; 0.03 μmol/kg single s.c., Time 18 h",1.26 g
same,Cumulative Food Intake,"[1]; 0.03 μmol/kg single s.c., Time 19 h",1.29 g
same,Cumulative Food Intake,"[1]; 0.03 μmol/kg single s.c., Time 20 h",1.33 g
same,Cumulative Food Intake,"[1]; 0.03 μmol/kg single s.c., Time 21 h",1.39 g
same,Cumulative Food Intake,"[1]; 0.03 μmol/kg single s.c., Time 22 h",1.39 g
same,Cumulative Food Intake,"[1]; 0.03 μmol/kg single s.c., Time 23 h",1.39 g
same,Cumulative Food Intake,"[1]; 0.03 μmol/kg single s.c., Time 24 h",1.39 g
same,Cumulative Food Intake,"[1]; 0.1 μmol/kg single s.c., Time 1 h",0.06 g
same,Cumulative Food Intake,"[1]; 0.1 μmol/kg single s.c., Time 2 h",0.12 g
same,Cumulative Food Intake,"[1]; 0.1 μmol/kg single s.c., Time 3 h",0.17 g
same,Cumulative Food Intake,"[1]; 0.1 μmol/kg single s.c., Time 4 h",0.20 g
same,Cumulative Food Intake,"[1]; 0.1 μmol/kg single s.c., Time 5 h",0.26 g
same,Cumulative Food Intake,"[1]; 0.1 μmol/kg single s.c., Time 6 h",0.28 g
same,Cumulative Food Intake,"[1]; 0.1 μmol/kg single s.c., Time 7 h",0.31 g
same,Cumulative Food Intake,"[1]; 0.1 μmol/kg single s.c., Time 8 h",0.37 g
same,Cumulative Food Intake,"[1]; 0.1 μmol/kg single s.c., Time 9 h",0.39 g
same,Cumulative Food Intake,"[1]; 0.1 μmol/kg single s.c., Time 10 h",0.44 g
same,Cumulative Food Intake,"[1]; 0.1 μmol/kg single s.c., Time 11 h",0.49 g
same,Cumulative Food Intake,"[1]; 0.1 μmol/kg single s.c., Time 12 h",0.50 g
same,Cumulative Food Intake,"[1]; 0.1 μmol/kg single s.c., Time 13 h",0.58 g
same,Cumulative Food Intake,"[1]; 0.1 μmol/kg single s.c., Time 14 h",0.62 g
same,Cumulative Food Intake,"[1]; 0.1 μmol/kg single s.c., Time 15 h",0.67 g
same,Cumulative Food Intake,"[1]; 0.1 μmol/kg single s.c., Time 16 h",0.75 g
same,Cumulative Food Intake,"[1]; 0.1 μmol/kg single s.c., Time 17 h",0.76 g
same,Cumulative Food Intake,"[1]; 0.1 μmol/kg single s.c., Time 18 h",0.83 g
same,Cumulative Food Intake,"[1]; 0.1 μmol/kg single s.c., Time 19 h",0.89 g
same,Cumulative Food Intake,"[1]; 0.1 μmol/kg single s.c., Time 20 h",0.90 g
same,Cumulative Food Intake,"[1]; 0.1 μmol/kg single s.c., Time 21 h",0.91 g
same,Cumulative Food Intake,"[1]; 0.1 μmol/kg single s.c., Time 22 h",0.93 g
same,Cumulative Food Intake,"[1]; 0.1 μmol/kg single s.c., Time 23 h",0.93 g
same,Cumulative Food Intake,"[1]; 0.1 μmol/kg single s.c., Time 24 h",0.94 g
same,MALAT1 expression in beta islet cells compared to saline control (in situ hybridization),[2],reduced
same,% inhibition of MALAT-1 mRNA in Pancreatic Islets,[3],52%
same,pIC50,[4],7.70
